The Ki is a measure of affinity in units of concentration, obtained from inhibition or displacement.

Each structure is given as a SMILES string. Where a name gives a salt, the structure may show the parent alone. Read-outs that look alike come from different tables or passages of the source.

In experiment [1] the target is T1, ORL-1 receptor (Cavia porcellus, UniProt P47748).
T1 construct: evaluated for ORL-1 functional activity in electrically stimulated guinea pig ileum; from tissue; host or cells: guinea pig ileum
T1 sequence (P47748 whole entry): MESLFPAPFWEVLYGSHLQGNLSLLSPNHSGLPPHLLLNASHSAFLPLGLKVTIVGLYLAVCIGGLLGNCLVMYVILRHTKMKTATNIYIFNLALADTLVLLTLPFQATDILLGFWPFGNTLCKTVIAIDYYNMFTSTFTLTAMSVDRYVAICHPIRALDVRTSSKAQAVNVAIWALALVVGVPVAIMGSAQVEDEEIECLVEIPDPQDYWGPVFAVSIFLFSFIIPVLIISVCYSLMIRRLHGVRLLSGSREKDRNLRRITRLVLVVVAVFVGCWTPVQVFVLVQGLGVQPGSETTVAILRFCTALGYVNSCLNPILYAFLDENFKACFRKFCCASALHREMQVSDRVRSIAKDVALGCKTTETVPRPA
The experiment in a line: Electrically stimulated guinea pig ileum (GPI) assay. The format is cell-based. The procedure: Compounds of the invention are evaluated for ORL-1 functional activity in electrically stimulated guinea pig ileum, in agreement with the experimental protocol described in Caló et. al., Br. J. Pharmacol. 129, 1183, (2000). The ORL-1 antagonist activity (pKb) is evaluated against the endogenous ORL-1 agonist N/OFQ.

Experiment [2] has as its target ORL-1 receptor (Homo sapiens, UniProt P41146). The experiment in a line: Receptor binding studies, radioligand [3H]-AcRYYRWK-NH2. As to the method: The receptor binding studies were carried out on 96-well plates; the incubation medium was Tris HCl pH 7.4 (4° C.) containing MgCl2 (5 mM), EGTA (0.2 mM), BSA (0.1%), with a final volume of 1.0 ml, using as radioligand [^3H]-AcRYYRWK-NH2 (Amersham, 103 Ci/mmol). The samples were incubated at 37° C. for 120 min. and were then filtered off via Whatman GF/B filters pre-treated with 0.2% polyethylenimine. The filters were washed three times with Tris HCl buffer pH 7.4 (4° C.). The radioactivity present on the filters was measured using a Packard Top Count microplate scintillation counter.

Where [3] appears, read: electrically stimulated guinea pig ileum, against the endogenous ORL-1 agonist N/OFQ, read-out: Antagonist activity (GPI) pKb vs N/OFQ (converted).
Setting [4] is: ORL-1 receptor, radioligand [3H]-AcRYYRWK-NH2, read-out: Binding affinity Ki.

Sequence of ORL-1 receptor (Homo sapiens, UniProt P41146) (P41146 whole entry): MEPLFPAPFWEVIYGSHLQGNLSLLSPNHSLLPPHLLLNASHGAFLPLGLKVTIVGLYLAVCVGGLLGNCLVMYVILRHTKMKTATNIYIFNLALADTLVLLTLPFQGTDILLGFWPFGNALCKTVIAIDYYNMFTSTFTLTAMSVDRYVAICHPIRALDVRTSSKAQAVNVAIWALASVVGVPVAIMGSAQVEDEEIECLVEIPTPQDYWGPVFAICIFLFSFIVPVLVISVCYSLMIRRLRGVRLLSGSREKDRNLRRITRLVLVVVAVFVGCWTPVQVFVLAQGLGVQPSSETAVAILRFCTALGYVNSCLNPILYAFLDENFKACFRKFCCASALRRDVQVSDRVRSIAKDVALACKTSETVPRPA

With `O=C(c1[nH]c2ccccc2c1CN1CCC(c2c(Cl)cccc2Cl)CC1)N1CCN(CCCO)CC1` [Example 75, {3-[4-(2,6-Dichloro-phenyl)-piperidin-1-ylmethyl]-1H-indol-2-yl}-[4-(3-hydroxy-propyl)-piperaizn-1-yl]-methanone], at ORL-1 receptor [1] (setting [3]), the Kb is 3.02 nM. The Ki on ORL-1 receptor [2] (setting [4]) was determined as 1.5 nM.
Take `NC(=O)Cn1c(-c2ccccc2)c(CN2CCC(c3c(Cl)cccc3Cl)CC2)c2ccccc21` [Example 143, 2-(3-[4-(2,6-Dichloro-phenyl)-piperidin-1-ylmethyl]-2-phenyl-indol-1-yl)-acetamide]: the Kb at ORL-1 receptor [1] (setting [3]) is 2.24 nM. Also, at ORL-1 receptor [2] (setting [4]), the Ki was 3.2 nM.
The compound `Cc1cccc(C)c1C1CCN(Cc2c(C(=O)N3CCN(CCOCCO)CC3)[nH]c3ccccc23)CC1` [Example 97, {3-[4-(2,6-Dimethyl-phenyl)-piperidin-1-ylmethyl]-1H-indol-2-yl}-{4-[2-(2-hydroxy-ethoxy)-ethyl]-piperazin-1-yl}-methanone] showed a Kb on ORL-1 receptor [1] of 1 nM. This compound also came in with a Ki on ORL-1 receptor [2] of 6.5 nM.
Regarding `NC(=O)Cn1c(C(=O)N2CCOCC2)c(CN2CCC(c3c(Cl)cccc3Cl)CC2)c2ccccc21` [Example 150, 2-[3-[4-(2,6-Dichloro-phenyl)-piperidin-1-ylmethyl]-2-(morpholine-4-carbonyl)-indol-1-yl]-acetamide hydrochloride], the Kb on ORL-1 receptor [1] was 8.91 nM. Also, the inhibition constant (Ki) on ORL-1 receptor [2] (setting [4]) was determined as 8 nM.
Regarding `CN1CCC(NC(=O)Cn2c(C(=O)N3CCOCC3)c(CN3CCC(c4c(Cl)cccc4Cl)CC3)c3ccccc32)CC1` [Example 161, 2-[3-[4-(2,6-Dichloro-phenyl)-piperidin-1-ylmethyl]-2-(morpholine-4-carbonyl)-indol-1-yl]-N-(1-methyl-piperidin-4-yl)-acetamide dihydrochloride], the Kb at ORL-1 receptor [1] (setting [3]) was 0.955 nM. The Ki at ORL-1 receptor [2] (setting [4]) is 8.2 nM.
Compound `Cc1cccc(C)c1C1CCN(Cc2c(-c3ccccc3)n(CC(=O)NC3CCN(C)CC3)c3ccccc23)CC1` [Example 165, 2-{3-[4-(2,6-Dimethyl-phenyl)-piperidin-1-ylmethyl]-2-phenyl-indol-1-yl}-N-(1-methyl-piperidin-4-yl)-acetamide ditrifluoroacetate] had a Kb on ORL-1 receptor [1] of 4.17 nM. For the same compound, the Ki at ORL-1 receptor [2] (setting [4]) is 4.6 nM.
Regarding `CN1CCC(NC(=O)Cn2c(-c3ccccc3)c(CN3CCC(c4c(Cl)cccc4Cl)CC3)c3ccccc32)CC1` [Example 160, 2-{3-[4-(2,6-Dichloro-phenyl)-piperidin-1-ylmethyl]-2-phenyl-indol-1-yl}-N-(1-methyl-piperidin-4-yl)-acetamide], at ORL-1 receptor [1], the Kb is 1.74 nM. The Ki on ORL-1 receptor [2] was found to be 0.7 nM.
With `Cc1cccc(C)c1C1CCN(Cc2c(C(=O)N3CCC4(CCN(C)C4)C3)[nH]c3ccccc23)CC1` (stereo not drawn) [Example 109, {3-[4-(2,6-Dimethyl-phenyl)-piperidin-1-ylmethyl]-1H-indol-2-yl}-(7-methyl-2,7-diaza-spiro[4.4]non-2-yl)-methanone], the Kb on ORL-1 receptor [1] (setting [3]) is 1.23 nM. The Ki at ORL-1 receptor [2] (setting [4]) stood at 5.4 nM.
Turning to `Cc1cccc(C)c1C1CCN(Cc2c(C(=O)N3C[C@@H]4C[C@H]3CO4)[nH]c3ccccc23)CC1` [Example 96], at ORL-1 receptor [1] (setting [3]), the Kb is 1.95 nM. Moreover, the Ki at ORL-1 receptor [2] (setting [4]) was 10 nM.

Source of the values: US20090275555A1, “Substituted indole ligands for the ORL-1 receptor” (priority 2004, published 2009).
